Test results reported in patent US10813859B2, “Wrinkle ameliorating agent” (POLA CHEMICAL INDUSTRIES, INC., priority 2016, dated 2020).

Tests used:
[1] = Moisture absorbing property confirmation test; type: physicochemical; conditions: humidity 75%, 25° C.
Protocol: Compound 1 was precisely weighed in a 1 g weighing bottle, left in a desiccator with a humidity at 75% (a saturated aqueous solution of sodium chloride) in an open state, and stored at 25° C. The weight was measured from the start of the storage until 30 days thereafter, and the coefficient of moisture absorption was determined by the following formula. Coefficient of moisture absorption (%)=(M3−M2)/(M2−M1)×100
M1: The mass of the weighing bottle (g)
M2: The mass of the weighing bottle containing a sample at the start of the storage (g)
M3: The mass of the weighing bottle containing the sample after the storage (g)

[2] = tested on: hyaluronan synthetase gene (HAS1) in normal human epidermal keratinocyte; experiment: Test for confirming expression-increasing effect of epidermal hyaluronan synthetase gene; type: cell-based; conditions: 0.2% by mass in medium, 24 hours; qPCR, ACTB internal standard; FIG. 5
Protocol: Normal human epidermal keratinocyte (produced by Kurabo Industries Ltd.) was inoculated in a 24-well plate at […] cells/well, and incubated overnight at 37° C. in a 5% CO2 environment. The culture medium was exchanged with a medium containing 0.2% by mass of Compound 1, or glycerol (produced by Wako Pure Chemical Industries, Ltd.) and cultured at 37° C. in a 5% CO2 environment for 24 hours.
Using a mRNA recovery kit (FastLane Cell SYBR Green Kit, produced by Qiagen N.V.), mRNA was extracted by a conventional method. Using a qPCR kit (One Step SYBR PrimeScript RT-PCR Kit II, produced by Takara Bio Inc.), the expression level of the hyaluronan synthetase gene (HAS 1) was analyzed by qPCR using ACTB as an internal standard (7500 Real-Time PCR System, produced by Applied Biosystems). Data analysis was carried out by the ΔΔCt method.
The respective relative values were calculated with respect to the expression level of the gene in a medium not containing Compound 1 and glycerol (non-addition group) as 1.

moisture absorbing property ([1]; up to 30 days)	Coefficient of moisture absorption (mean value, n = 3) ([1]; storage time 1 day) [%]	Coefficient of moisture absorption (mean value, n = 3) ([1]; storage time 3 days) [%]	Coefficient of moisture absorption (mean value, n = 3) ([1]; storage time 7 days) [%]	Coefficient of moisture absorption (mean value, n = 3) ([1]; storage time 14 days) [%]	Coefficient of moisture absorption (mean value, n = 3) ([1]; storage time 30 days) [%]	expression level of the hyaluronan synthetase gene (HAS 1) compared to the non-addition group [2]	Compound
confirmed	13.2	19.0	20.5	21.0	21.2	significantly larger	OCC(O)COC1CCCCC1 (centres unmarked) [Compound 1, 3-cyclohexyloxy-1,2-propanediol]
						no significant difference	OCC(O)CO [glycerol, reference compound]
